Patent US5858702A, “Isolation, cloning and expression of transmembrane water channel Aquaporin 5 (AQP5)” (The Johns Hopkins University, priority 1995, dated 1999)

Target: T1, CHIP28 (Homo sapiens, UniProt P29972)
T1 construct: was comprised of AQP1 (the 28-kDa protein itself and the 35-60-kDa glycosylated protein); from tissue; host or cells: human erythrocytes (blood-bank units; small-scale purifications from freshly drawn whole blood)
T1 sequence (P29972 2-269 limits assumed): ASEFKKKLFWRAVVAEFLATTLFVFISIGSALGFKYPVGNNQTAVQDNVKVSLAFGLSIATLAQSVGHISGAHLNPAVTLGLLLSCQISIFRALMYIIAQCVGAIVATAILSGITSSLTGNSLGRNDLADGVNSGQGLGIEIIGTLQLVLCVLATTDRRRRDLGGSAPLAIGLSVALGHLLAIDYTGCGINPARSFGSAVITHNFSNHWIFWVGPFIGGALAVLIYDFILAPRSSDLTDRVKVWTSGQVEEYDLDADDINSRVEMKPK
Experiment: Stopped-flow water flux (Pf) in CHIP28 proteoliposomes, effect of mercurial reagents
Type: biochemical
Description: Purified AQP1 was stored overnight at 0° C. or frozen for several days at -80° C. prior to reconstitution. Reconstitution into proteoliposomes was carried out in a final volume of 1 ml containing 60-90 μg of purified AQP 1 protein in chromatography buffer, 9 mg of bath-sonicated E. coli phospholipid, 1.25% (w/v) octyl glucoside, and 50 mM Tris-HCl (pH 7.5). The mixture was briefly blended on a vortex mixer and incubated for 20 minutes on ice. Proteoliposomes (or liposomes prepared without protein) were formed at room temperature by rapidly injecting the mixture into 25 ml of buffer A [50 mM MOPS, pH 7.5, 150 mM N-methyl-D-glucamine (NMDG) chloride also containing 10-15 mM carboxyfluorescein, 1 mM dithiothreitol, and 0.5 mM PMSF]. For the measurement of proton permeability, proteoliposomes and liposomes were loaded with buffer B (5 mM MOPS, pH 7.5, 150 mM KCl, 0.5 mM carboxyfluorescein, 1 mM dithiothreitol, and 0.5 mM PMSF). The suspension was incubated for 20 minutes at room temperature. Proteoliposomes or liposomes were collected by centrifugation for 1 hour at 123000×g in a Beckman Type 42.1 rotor at 4° C. The pellet was resuspended in 8 ml of buffer A or B and then centrifuged for 1 hour at 152000×g in a Beckman Type 50 Ti rotor. Proteoliposomes or liposomes were resuspended in 300 μl of buffer A or B and stored at 4° C. for 16-24 hours. Typically 50% (54±6%, n=5) of the AQP1 protein and 70% of the phospholipid were recovered in proteoliposomes. The lipid to protein ratio was in the range of 120:1 to 219:1. These proteoliposomes have internal volumes of 1 μl/mg of phospholipid (Ambudkar and Maloney, 1986, J. Biol. Chem. 261:10079-10086). Protein and phospholipid were measured as described by Ambudkar & Maloney (J. Biol. Chem., 1986, 261:10079-10086).
Permeability measurements. Membrane permeability measurements (Pf) were measured by exposing AQP1 proteoliposomes or control liposomes to an osmotic gradient by rapid mixing with an equal volume of another solution containing buffer A plus sufficient sucrose to increase osmolality in the mixed solutions to a value 120% of that in the original solution. This was performed with a stopped-flow fluorometer (SF.17MV, Applied Photophysics, Leatherhead, U.K.) with a measured dead time of 0.7 ms. The excitation wavelength was set at 490±1.5 nm using a 150-W mercury-xenon arc lamp and monochromator (.function.3.4 grating monochromator, both from Applied Photophysics); the emission wavelength was >515 nm using a cut-on filter (Oriel Corp., Stratford, Conn.). Extravesicular carboxyfluorescein fluorescence was completely quenched using anti-fluorescein antibody (Harris et al., 1990, Am. J. Physiol. 259:F366-F371).
Within the range of osmolalities used in these experiments, the vesicles acted as perfect osmometers, and relative volume (absolute volume divided by initial volume) was linearly related to relative fluorescence (absolute fluorescence divided by initial fluorescence). The data obtained from 8 to 16 determinations was averaged and fit to single-exponential curves using 5 software provided by Applied Photophysics (Zeidel et al., 1992, Biochemistry 31:589-596). The fitting parameters were then used to determine Pf by first applying the linear conversion from relative fluorescence to relative volume and then iteratively solving the water permeability equation using MathCAD software (MathSoft, Cambridge, Mass.):
dV(t)/dt=(Pf)(SAV)(MVW)[(Cin /V(t))-Cout ] (1)
where V(t) is relative intravesicular volume as a function of time, Pf is osmotic water permeability in centimeters per second, SAV is the vesicle surface area to volume ratio, MVW is the molar volume of water (18 cm^3 /mol), and Cin and Cout are the initial concentrations of total solute inside and outside the vesicle, respectively (Zeidel et al., 1992, Biochemistry 31:589-596).
Effect of mercural reagents.

Compound | time to complete inhibition of Pf (1 mM, 37° C.) | Pf in CHIP28 proteoliposomes after mercurial (1 mM, 37° C. (FIG. 12: pCMBS 25 minutes, HgCl2 3 minutes)) | reversal of inhibition by both mercurial reagents (β-mercaptoethanol 5 mM after pCMBS or HgCl2)
[Cl][Hg][Cl] [HgCl2] | ≤ 5 min | 0.007±0.003 cm/s | 
OCCS [β-mercaptoethanol] |  |  | completely reversed
